target: T1, human M4 muscarinic acetylcholine receptor (Homo sapiens, UniProt P08173); test: human FLIPR-based M4 PAM assay (CHO-K1 cells with human M4 receptor and Gαqi5, calcium dye fluorescence, EC20 acetylcholine); format: cell-based; conditions: inflection point (IP) of the dose response curve, human M4 receptor/Gαqi5, acetylcholine at 20% of maximum response, read-out: M4PAM Hu IP
T1 construct: expressed in transfected cells
T1 sequence (P08173 1-479): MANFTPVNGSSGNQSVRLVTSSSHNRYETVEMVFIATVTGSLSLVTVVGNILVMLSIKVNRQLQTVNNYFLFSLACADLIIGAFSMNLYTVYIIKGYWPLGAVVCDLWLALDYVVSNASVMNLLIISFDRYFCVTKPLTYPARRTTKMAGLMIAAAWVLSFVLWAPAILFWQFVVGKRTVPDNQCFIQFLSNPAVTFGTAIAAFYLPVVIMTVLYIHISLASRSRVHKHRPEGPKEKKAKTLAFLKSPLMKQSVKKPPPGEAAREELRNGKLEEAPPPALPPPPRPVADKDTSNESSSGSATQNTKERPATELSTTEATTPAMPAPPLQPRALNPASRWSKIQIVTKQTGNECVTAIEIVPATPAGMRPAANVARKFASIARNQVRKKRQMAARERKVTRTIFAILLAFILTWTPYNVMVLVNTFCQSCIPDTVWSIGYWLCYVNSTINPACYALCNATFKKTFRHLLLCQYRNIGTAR
Summary of the method: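 CHO-K1 cells stably expressing human M4 and chimeric Gαqi5 were dye-loaded ~1 h at 37° C. Test compound was added with fluorescence recorded 4 min, then acetylcholine at EC20 (sometimes a further EC70 addition) with reading 3.5 min. Value is the inflection point of a 4-parameter logistic fit.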

EC50 | Structure (SMILES)
233 nM | CC(C)CCn1cc(-c2ccc(C3CC3)nc2-c2ccc3cccnc3c2)cn1 [Example 70, 7-{6-(cyclopropyl)-3-[1-(3-methylbutyl)-1H-pyrazol-4-yl]pyridin-2-yl}quinoline]
112 nM | CC(C)(C)Cn1cc(-c2ccc(C#N)nc2-c2ccc3ccnnc3c2)cn1 [Example 43, 6-cinnolin-7-yl-5-[1-(2,2-dimethylpropyl)-1H-pyrazol-4-yl]pyridine-2-carbonitrile]
138 nM | COc1cc2ccc(-c3nc(C#N)ccc3-c3cnn(CC(F)(F)C(F)(F)F)c3)cc2nn1 [Example 112, 6-(3-methoxycinnolin-7-yl)-5-[1-(2,2,3,3,3-pentafluoropropyl)-1H-pyrazol-4-yl]pyridine-2-carbonitrile]
169 nM | CC(C)C(O)Cn1cc(-c2ccc(C#N)nc2-c2ccc3cccnc3c2)cn1 (stereo not shown) [Example 46, 5-[1-(2-hydroxy-3-methylbutyl)-1H-pyrazol-4-yl]-6-quinolin-7-ylpyridine-2-carbonitrile]
154 nM | COc1cc2ccc(-c3nc(C#N)ccc3-c3cnn(CC4(CC#N)CC4)c3)cc2nn1 [Example 104, 5-(1-{[1-(cyanomethyl)cyclopropyl]methyl}-1H-pyrazol-4-yl)-6-(3-methoxycinnolin-7-yl)pyridine-2-carbonitrile]
14 nM | COc1cc2ccc(-c3nc(C)ccc3-c3cnn(CC45CCC(CC4)CC5)c3)cc2nn1 [Example 15, 7-{3-[1-(bicyclo[2.2.2]oct-1-ylmethyl)-1H-pyrazol-4-yl]-6-methylpyridin-2-yl}-3-methoxycinnoline]
104 nM | CC(C)(O)C(F)(F)Cn1cc(-c2ccc(C#N)nc2-c2ccc3cccnc3c2)cn1 [Example 117, 5-[1-(2,2-difluoro-3-hydroxy-3-methylbutyl)-1H-pyrazol-4-yl]-6-quinolin-7-ylpyridine-2-carbonitrile]
191 nM | C=Cc1ccc(-c2cnn(CCC(C)C)c2)c(-c2ccc3cccnc3c2)n1 [Example 72, 7-{6-ethenyl-3-[1-(3-methylbutyl)-1H-pyrazol-4-yl]pyridin-2-yl}quinoline]
53 nM | COc1cc2ccc(-c3nc(C(F)F)ccc3-c3cnn(CC(C)(C)C)c3)cc2nn1 [Example 54, 7-{6-(difluoromethyl)-3-[1-(2,2-dimethylpropyl)-1H-pyrazol-4-yl]pyridin-2-yl}-3-methoxycinnoline]
93 nM | COc1cc2ccc(-c3nc(C)ccc3-c3cnn(Cc4ccccc4)c3)cc2nn1 [Example 5, 7-[3-(1-benzyl-1H-pyrazol-4-yl)-6-methylpyridin-2-yl]-3-methoxycinnoline]
154 nM | COc1cc2ccc(-c3nc(C)ccc3-c3cnn(CCCC(F)=C(F)F)c3)cc2nn1 [Example 80, 3-methoxy-7-{6-methyl-3-[1-(4,5,5-trifluoropent-4-en-1-yl)-1H-pyrazol-4-yl]pyridin-2-yl}cinnoline]
60 nM | COc1cc2ccc(-c3nc(C#N)ccc3-c3cnn(CC4(C(F)(F)F)CC4)c3)cc2nn1 [Example 45, 6-(3-methoxycinnolin-7-yl)-5-(1-{[1-(trifluoromethyl)cyclopropyl]methyl}-1H-pyrazol-4-yl)pyridine-2-carbonitrile]
26 nM | CC(C)CCn1cc(-c2ccc(Cl)nc2-c2ccc3cccnc3c2)cn1 [Example 63, 7-{6-chloro-3-[1-(3-methylbutyl)-1H-pyrazol-4-yl]pyridin-2-yl}quinoline]
145 nM | CC(C)CCn1cc(-c2cc(Cl)cnc2-c2ccc3cccnc3c2)cn1 [Example 52, 7-{5-chloro-3-[1-(3-methylbutyl)-1H-pyrazol-4-yl]pyridin-2-yl}quinoline]
169 nM | COc1cc2ccc(-c3nc(C)ccc3-c3cnn(CC4(C)CCOC4)c3)cc2nn1 (single isomer, unassigned) [Example 99, 3-methoxy-7-(6-methyl-3-{1-[(3-methyltetrahydrofuran-3-yl)methyl]-1H-pyrazol-4-yl}pyridin-2-yl)cinnoline]
118 nM | CC(C)CCn1cc(-c2ccc(-c3ccnn3C)nc2-c2ccc3cccnc3c2)cn1 [Example 68, 7-{3-[1-(3-methylbutyl)-1H-pyrazol-4-yl]-6-(1-methyl-1H-pyrazol-5-yl)pyridin-2-yl}quinoline]

EC50 | Structure (SMILES)
143 nM | COc1cc2ccc(-c3nc(Cl)c(C)cc3-c3cnn(CCC(C)(C)OC)c3)cc2nn1 [Example 30, 7-{6-chloro-3-[1-(3-methoxy-3-methylbutyl)-1H-pyrazol-4-yl]-5-methylpyridin-2-yl}-3-methoxycinnoline]
21 nM | Cc1ccc(-c2cnn(CC34CC(C3)C4)c2)c(-c2ccc3cccnc3c2)n1 [Example 9, 7-{3-[1-(bicyclo[1.1.1]pent-1-ylmethyl)-1H-pyrazol-4-yl]-6-methylpyridin-2-yl}quinoline]
185 nM | CCCc1ccc(-c2cnn(CCC(C)C)c2)c(-c2ccc3cccnc3c2)n1 [Example 69, 7-{3-[1-(3-methylbutyl)-1H-pyrazol-4-yl]-6-propylpyridin-2-yl}quinoline]
27 nM | CC(C)(Cn1cc(-c2ccc(C#N)nc2-c2ccc3cccnc3c2)cn1)C(F)F [Example 90, 5-[1-(3,3-difluoro-2,2-dimethylpropyl)-1H-pyrazol-4-yl]-6-quinolin-7-ylpyridine-2-carbonitrile]
72 nM | N#Cc1ccc(-c2cnn(CC3CC34CC4)c2)c(-c2ccc3cccnc3c2)n1 (stereo not shown) [Example 29, 6-quinolin-7-yl-5-[1-(spiro [2.2]pent-1-ylmethyl)-1H-pyrazol-4-yl]pyridine-2-carbonitrile]
220 nM | COc1ccc(-c2cnn(CCC(C)C)c2)c(-c2ccc3cccnc3c2)n1 [Example 48, 7-{6-methoxy-3-[1-(3-methylbutyl)-1H-pyrazol-4-yl]pyridine-2-yl}quinoline]
91 nM | COc1cc2ccc(-c3nc(C#N)ccc3-c3cnn(CC4CC4(C)C)c3)cc2nn1 (stereo not shown) [Example 102, 5-{1-[(2,2-dimethylcyclopropyl)methyl]-1H-pyrazol-4-yl}-6-(3-methoxycinnolin-7-yl)pyridine-2-carbonitrile]
93 nM | c1cnc(-c2ccc3cccnc3c2)c(-c2cnn(CC3CCCCC3)c2)c1 [Example 106, 7-{3-[1-(cyclohexylmethyl)-1H-pyrazol-4-yl]pyridin-2-yl}quinoline]
123 nM | COCCOc1ccc(-c2cnn(CCC(C)C)c2)c(-c2ccc3cccnc3c2)n1 [Example 75, 7-{6-(2-methoxyethoxy)-3-[1-(3-methylbutyl)-1H-pyrazol-4-yl]pyridin-2-yl}quinoline]
190 nM | COc1cc2ccc(-c3nc(C(F)F)ccc3-c3cnn(CC(C)(C)F)c3)cc2nn1 [Example 115, 7-{6-(difluoromethyl)-3-[1-(2-fluoro-2-methylpropyl)-1H-pyrazol-4-yl]pyridin-2-yl}-3-methoxycinnoline]
43 nM | COc1cc2ccc(-c3nc(C)ccc3-c3cnn(CC4CCC(F)CC4)c3)cc2nn1 (stereo not shown) [Example 19, 7-(3-{1-[(4-fluorocyclohexyl)methyl]-1H-pyrazol-4-yl}-6-methylpyridin-2-yl)-3-methoxycinnoline]
151 nM | COc1cc2ccc(-c3nc(C)ccc3-c3cnn(CC4(C(F)(F)F)CCC4)c3)cc2nn1 [Example 24, 3-methoxy-7-[6-methyl-3-(1-{[1-(trifluoromethyl)cyclobutyl]methyl}-1H-pyrazol-4-yl)pyridin-2-yl]cinnoline]
121 nM | CC(C)CCn1cc(-c2ccc(C3=CCOCC3)nc2-c2ccc3cccnc3c2)cn1 [Example 67, 7-{6-(3,6-dihydro-2H-pyran-4-yl)-3-[1-(3-methylbutyl)-1H-pyrazol-4-yl]pyridin-2-yl}quinoline]
19 nM | Cc1ccc(-c2cnn(CC(C)(C)C)c2)c(-c2ccc3cccnc3c2)n1 [Example 6, 7-{3-[1-(2,2-dimethylpropyl)-1H-pyrazol-4-yl]-6-methylpyridin-2-yl}quinoline]
239 nM | c1cnc(-c2ccc3cccnc3c2)c(-c2cnn(CCC3CC3)c2)c1 [Example 96, 7-{3-[1-(2-cyclopropylethyl)-1H-pyrazol-4-yl]pyridin-2-yl}quinoline]

— patent publication US11970479B2, “3-(1H-pyrazol-4-yl)pyridine allosteric modulators of the M4 muscarinic acetylcholine receptor” (Merck Sharp & Dohme LLC, priority 2018, dated 2024)
